Measured values taken from patent US12077503B2, “Substituted cyclic amides and their use as herbicides” (FMC CORPORATION, priority 2015, dated 2024).

What was measured:
Format in all cases: in vivo
corn (Zea mays) = test: Test A postemergence; conditions: postemergence; for Corn plant response rating: 125 g ai/ha, visual injury rating on 0 to 100 scale (0 no effect, 100 complete control), approx. 10 d; for Plant response rating, Corn: 500 g ai/ha, 0 to 100 scale, 0 no effect, 100 complete control
Summary of the method: (§1)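 Each rating is a visual injury score from 0 to 100 given about 10 d after treatment, judged against untreated controls kept alongside in the greenhouse. In loam soil–sand blend, seeds got a preemergence directed soil spray, while postemergence plants were 2 to 10 cm tall at spraying.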

[1] = tested on: barnyardgrass (Echinochloa crus-galli); test: Test A postemergence; conditions: postemergence; for Barnyardgrass plant response rating: 125 g ai/ha, visual injury rating on 0 to 100 scale (0 no effect, 100 complete control), approx. 10 d; for Plant response rating, Barnyardgrass: 500 g ai/ha, 0 to 100 scale, 0 no effect, 100 complete control
Summary of the method: as §1

[2] = tested on: ryegrass, Italian (Italian ryegrass, Lolium multiflorum); test: Test A postemergence; conditions: for Ryegrass, Italian plant response rating: 125 g ai/ha, visual injury rating on 0 to 100 scale (0 no effect, 100 complete control), approx. 10 d; for Plant response rating, Ryegrass, Italian: 500 g ai/ha
Summary of the method: as §1

Kochia (Kochia scoparia) [3] = test: Test A postemergence; conditions: for Kochia plant response rating: 125 g ai/ha, visual injury rating on 0 to 100 scale (0 no effect, 100 complete control), approx. 10 d; for Plant response rating, Kochia: 500 g ai/ha
Summary of the method: as §1

[4] = tested on: giant foxtail (Setaria faberii); test: Test A postemergence; conditions: for Foxtail, Giant plant response rating: 125 g ai/ha, visual injury rating on 0 to 100 scale (0 no effect, 100 complete control), approx. 10 d; for Plant response rating, Foxtail, Giant: 500 g ai/ha
Summary of the method: as §1

[5] = tested on: pigweed (Amaranthus retroflexus); test: Test A postemergence; conditions: for Pigweed plant response rating: 125 g ai/ha, visual injury rating on 0 to 100 scale (0 no effect, 100 complete control), approx. 10 d; for Plant response rating, Pigweed: 500 g ai/ha
Summary of the method: as §1

[6] = tested on: Galium (catchweed bedstraw, Galium aparine); test: Test A postemergence; conditions: for Galium plant response rating: 125 g ai/ha, visual injury rating on 0 to 100 scale (0 no effect, 100 complete control), approx. 10 d; for Plant response rating, Galium: 500 g ai/ha
Summary of the method: as §1

[7] = tested on: blackgrass (Alopecurus myosuroides); test: Test A postemergence; conditions: postemergence; for Blackgrass plant response rating: 125 g ai/ha, visual injury rating on 0 to 100 scale (0 no effect, 100 complete control), approx. 10 d; for Plant response rating, Blackgrass: 500 g ai/ha, 0 to 100 scale, 0 no effect, 100 complete control
Summary of the method: as §1

[8] = tested on: wheat (Triticum aestivum); test: Test A postemergence; conditions: for Wheat plant response rating: 125 g ai/ha, visual injury rating on 0 to 100 scale (0 no effect, 100 complete control), approx. 10 d; for Plant response rating, Wheat: 500 g ai/ha
Summary of the method: as §1

[9] = tested on: ragweed (common ragweed, Ambrosia elatior); test: Test A postemergence; conditions: for Ragweed plant response rating: 125 g ai/ha, visual injury rating on 0 to 100 scale (0 no effect, 100 complete control), approx. 10 d; for Plant response rating, Ragweed: 500 g ai/ha
Summary of the method: as §1

[10] = tested on: sedge, umbrella (small-flower umbrella sedge, Cyperus difformis); test: Test B flooded paddy test; conditions: Flood, 250 g ai/ha; 0 to 100 scale where 0 is no effect and 100 is complete control; 13 to 15 d
Summary of the method: (§2)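 Response scored visually against untreated controls, 0 = no effect and 100 = complete control, 13–15 d after treatment in the greenhouse. Compounds added to paddy water held 3 cm above soil surface. Treatment given at 2-leaf stage.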

[11] = tested on: barnyardgrass (Echinochloa crus-galli); test: Test B flooded paddy test; conditions: Flood, 250 g ai/ha; 0 to 100 scale where 0 is no effect and 100 is complete control; 13 to 15 d
Summary of the method: as §2

[12] = tested on: ducksalad (Heteranthera limosa); test: Test B flooded paddy test; conditions: Flood, 250 g ai/ha; 0 to 100 scale where 0 is no effect and 100 is complete control; 13 to 15 d
Summary of the method: as §2

rice (Oryra sativa) = test: Test B flooded paddy test; conditions: Flood, 250 g ai/ha; 0 to 100 scale where 0 is no effect and 100 is complete control; 13 to 15 d
Summary of the method: as §2

[13] = tested on: barnyardgrass (Echinochloa crus-galli); test: Test A preemergence; conditions: for Plant response rating, Barnyardgrass: 125 g ai/ha, preemergence, 0 to 100 scale (0 no effect, 100 complete control); for Barnyardgrass plant response rating (0 to 100 scale, 0 is no effect, 100 is complete control): Preemergence, 500 g ai/ha, visual injury approx. 10 d
Summary of the method: as §1

[14] = tested on: ryegrass, Italian (Italian ryegrass, Lolium multiflorum); test: Test A preemergence; conditions: for Plant response rating, Ryegrass, Italian: 125 g ai/ha; for Ryegrass, Italian plant response rating (0 to 100 scale, 0 is no effect, 100 is complete control): 500 g ai/ha, visual injury approx. 10 d
Summary of the method: as §1

Kochia (Kochia scoparia) [15] = test: Test A preemergence; conditions: for Plant response rating, Kochia: 125 g ai/ha, preemergence, 0 to 100 scale (0 no effect, 100 complete control); for Kochia plant response rating (0 to 100 scale, 0 is no effect, 100 is complete control): Preemergence, 500 g ai/ha, visual injury approx. 10 d
Summary of the method: as §1

[16] = tested on: giant foxtail (Setaria faberii); test: Test A preemergence; conditions: for Plant response rating, Foxtail, Giant: 125 g ai/ha, preemergence, 0 to 100 scale (0 no effect, 100 complete control); for Foxtail, Giant plant response rating (0 to 100 scale, 0 is no effect, 100 is complete control): Preemergence, 500 g ai/ha, visual injury approx. 10 d
Summary of the method: as §1

[17] = tested on: pigweed (Amaranthus retroflexus); test: Test A preemergence; conditions: for Plant response rating, Pigweed: 125 g ai/ha; for Pigweed plant response rating (0 to 100 scale, 0 is no effect, 100 is complete control): 500 g ai/ha, visual injury approx. 10 d
[18] = tested on: ragweed (common ragweed, Ambrosia elatior); test: Test A preemergence; conditions: for Plant response rating, Ragweed: 125 g ai/ha; for Ragweed plant response rating (0 to 100 scale, 0 is no effect, 100 is complete control): 500 g ai/ha, visual injury approx. 10 d
Summary of the method: as §1

[19] = postemergence, 0 to 100 scale, 0 no effect, 100 complete control
[20] = preemergence, 0 to 100 scale (0 no effect, 100 complete control)
[21] = Postemergence, 0 to 100 scale where 0 is no effect and 100 is complete control
[22] = Preemergence, visual injury after approximately 10 d, 0 to 100 scale where 0 is no effect and 100 is complete control

Row | SMILES | Corn plant response rating (corn (Zea mays)) | Plant response rating, Corn (corn (Zea mays)) | Barnyardgrass plant response rating [1] | Plant response rating, Barnyardgrass [1] | Ryegrass, Italian plant response rating ([2]; postemergence) | Kochia plant response rating (Kochia (Kochia scoparia) [3]; postemergence) | Foxtail, Giant plant response rating ([4]; postemergence) | Pigweed plant response rating ([5]; postemergence) | Galium plant response rating ([6]; postemergence) | Blackgrass plant response rating [7] | Plant response rating, Blackgrass [7] | Wheat plant response rating ([8]; postemergence) | Ragweed plant response rating ([9]; postemergence) | Plant response rating, Sedge, Umbrella [10] | Plant response rating, Barnyardgrass [11] | Plant response rating, Ducksalad [12] | Plant response rating, Rice (rice (Oryra sativa)) | Plant response rating, Barnyardgrass [13] | Barnyardgrass plant response rating (0 to 100 scale, 0 is no effect, 100 is complete control) [13] | Ryegrass, Italian plant response rating (0 to 100 scale, 0 is no effect, 100 is complete control) ([14]; Preemergence) | other results
1 | O=C1NCC(c2ccc(Br)cc2)C1C(=O)Nc1ccccc1Cl (stereo not drawn) [Compound 453] | 0 | 40 | 80 | 80 | 0 | 20 | 80 | 0 | 30 | 0 | 30 | 0 | 0 | 0 | 30 | 95 | 0 | 80 | 90 | 0 | Plant response rating, Ryegrass, Italian [2, 19]: 0; Plant response rating, Kochia (Kochia (Kochia scoparia) [3]; [19]): 30; Plant response rating, Foxtail, Giant [4, 19]: 80; Plant response rating, Pigweed [5, 19]: 0; Plant response rating, Galium [6, 19]: 40; Plant response rating, Wheat [8, 19]: 30; Plant response rating, Ragweed [9, 19]: 0; Plant response rating, Ryegrass, Italian [14, 20]: 0; Plant response rating, Kochia (Kochia (Kochia scoparia) [15]): 0; Kochia plant response rating (0 to 100 scale, 0 is no effect, 100 is complete control) (Kochia (Kochia scoparia) [15]): 30; Plant response rating, Foxtail, Giant [16]: 90; Foxtail, Giant plant response rating (0 to 100 scale, 0 is no effect, 100 is complete control) [16]: 90; Plant response rating, Pigweed [17, 20]: 20; Pigweed plant response rating (0 to 100 scale, 0 is no effect, 100 is complete control) ([17]; Preemergence): 30; Plant response rating, Ragweed [18, 20]: 0; Ragweed plant response rating (0 to 100 scale, 0 is no effect, 100 is complete control) ([18]; Preemergence): 20
2 | O=C(Nc1cccc(F)c1F)C1C(=O)N(c2ccccc2)CC1c1cccc(C(F)(F)F)c1 (stereo not drawn) [Compound 457] | 0 | 0 | 0 | 0 | 0 | 0 | 0 | 0 | 0 | 0 | 0 | 0 | 0 | 0 | 0 | 0 | 0 | 0 | 0 | 0 | Plant response rating, Ryegrass, Italian [2, 19]: 0; Plant response rating, Kochia (Kochia (Kochia scoparia) [3]; [19]): 0; Plant response rating, Foxtail, Giant [4, 19]: 0; Plant response rating, Pigweed [5, 19]: 0; Plant response rating, Galium [6, 19]: 0; Plant response rating, Wheat [8, 19]: 0; Plant response rating, Ragweed [9, 19]: 0; Plant response rating, Ryegrass, Italian [14, 20]: 0; Plant response rating, Kochia (Kochia (Kochia scoparia) [15]): 0; Kochia plant response rating (0 to 100 scale, 0 is no effect, 100 is complete control) (Kochia (Kochia scoparia) [15]): 0; Plant response rating, Foxtail, Giant [16]: 0; Foxtail, Giant plant response rating (0 to 100 scale, 0 is no effect, 100 is complete control) [16]: 0; Plant response rating, Pigweed [17, 20]: 0; Pigweed plant response rating (0 to 100 scale, 0 is no effect, 100 is complete control) ([17]; Preemergence): 0; Plant response rating, Ragweed [18, 20]: 0; Ragweed plant response rating (0 to 100 scale, 0 is no effect, 100 is complete control) ([18]; Preemergence): 0
3 | Cc1c(F)ccc(NC(=O)C2C(=O)NCC2c2cccc(OC(F)(F)C(F)F)c2)c1F (stereo not drawn) [Compound 460] | 20 | 40 | 60 | 70 | 30 | 0 | 90 | 20 | 50 | 20 | 40 | 0 | 0 | 0 | 40 | 100 | 0 | 80 | 80 | 60 | Plant response rating, Ryegrass, Italian [2, 19]: 30; Plant response rating, Kochia (Kochia (Kochia scoparia) [3]; [19]): 30; Plant response rating, Foxtail, Giant [4, 19]: 80; Plant response rating, Pigweed [5, 19]: 40; Plant response rating, Galium [6, 19]: 60; Plant response rating, Wheat [8, 19]: 20; Plant response rating, Ragweed [9, 19]: 0; Plant response rating, Ryegrass, Italian [14, 20]: 40; Plant response rating, Kochia (Kochia (Kochia scoparia) [15]): 0; Kochia plant response rating (0 to 100 scale, 0 is no effect, 100 is complete control) (Kochia (Kochia scoparia) [15]): 40; Plant response rating, Foxtail, Giant [16]: 90; Foxtail, Giant plant response rating (0 to 100 scale, 0 is no effect, 100 is complete control) [16]: 90; Plant response rating, Pigweed [17, 20]: 30; Pigweed plant response rating (0 to 100 scale, 0 is no effect, 100 is complete control) ([17]; Preemergence): 30; Plant response rating, Ragweed [18, 20]: 0; Ragweed plant response rating (0 to 100 scale, 0 is no effect, 100 is complete control) ([18]; Preemergence): 20
4 | CN1CC(c2ccccc2)C(C(=S)Nc2ccccc2F)C1=O (stereo not drawn) [Compound 471] | 0 | 0 | 50 | 70 | 0 | 0 | 50 | 0 | 0 | 0 | 0 | 0 | 0 | 0 | 0 | 70 | 0 | 70 | 90 | 0 | Plant response rating, Ryegrass, Italian [2, 21]: 0; Plant response rating, Kochia (Kochia (Kochia scoparia) [3]; [21]): 0; Plant response rating, Foxtail, Giant [4, 21]: 70; Plant response rating, Pigweed [5, 21]: 0; Plant response rating, Galium [6, 21]: 0; Plant response rating, Wheat [8, 21]: 0; Plant response rating, Ragweed [9, 21]: 0; Plant response rating, Ryegrass, Italian [14, 22]: 0; Plant response rating, Kochia (Kochia (Kochia scoparia) [15]): 0; Kochia plant response rating (0 to 100 scale, 0 is no effect, 100 is complete control) (Kochia (Kochia scoparia) [15]): 0; Plant response rating, Foxtail, Giant [16]: 90; Foxtail, Giant plant response rating (0 to 100 scale, 0 is no effect, 100 is complete control) [16]: 90; Plant response rating, Pigweed [17, 22]: 0; Pigweed plant response rating (0 to 100 scale, 0 is no effect, 100 is complete control) ([17]; Preemergence): 0; Plant response rating, Ragweed [18, 22]: 0; Ragweed plant response rating (0 to 100 scale, 0 is no effect, 100 is complete control) ([18]; Preemergence): 0
